Key:
Format in all cases: in vivo
Alopecurus [1] = assay: Pre-emergence test/greenhouse; conditions: greenhouse, application rate 15 gai/ha, rated after three weeks, 0%=no effect, 100%=total destruction
Procedure: (§1) • Solvent: 5 parts by weight of acetone • Emulsifier: 1 part by weight of alkylaryl polyglycol ether
(§2) To produce a suitable preparation of active compound, 1 part by weight of active compound is mixed with the stated amount of solvent, the stated amount of emulsifier is added and the concetrate is diluted with water to the desired concentration.
(§3) Seeds of the test plants are sown in normal soil. After 24 hours, the soil is sprayed with the preparation of active compound such that the particular amount of active compound desired is applied per unit area. The concentration of active compound in the spray liquor is chosen such that the particular amount of active compound desired is applied in 1000 litres of water per hectare.
(§4) After three weeks, the degree of damage to the plants is rated in % damage in comparison to the development of the untreated control. The figures denote: • 0%=no effect (like untreated control) • 100%=total destruction

Amaranthus = assay: Pre-emergence test/greenhouse; conditions: greenhouse, application rate 15 gai/ha, rated after three weeks, 0%=no effect, 100%=total destruction
Procedure: as §1, §2, §3, §4

Chenopodium = assay: Pre-emergence test/greenhouse; conditions: greenhouse, application rate 15 gai/ha, rated after three weeks, 0%=no effect, 100%=total destruction
Procedure: as §1, §2, §3, §4

Setaria [2] = assay: Pre-emergence test/greenhouse; conditions: greenhouse, application rate 15 gai/ha, rated after three weeks, 0%=no effect, 100%=total destruction
Procedure: as §1, §2, §3, §4

Solanum = assay: Pre-emergence test/greenhouse; conditions: greenhouse, application rate 15 gai/ha, rated after three weeks, 0%=no effect, 100%=total destruction
Procedure: as §1, §2, §3, §4

Stellaria = assay: Pre-emergence test/greenhouse; conditions: greenhouse, application rate 15 gai/ha, rated after three weeks, 0%=no effect, 100%=total destruction
Procedure: as §1, §2, §3, §4

maize = assay: Pre-emergence test/greenhouse; conditions: greenhouse, application rate 15 gai/ha, rated after three weeks, 0%=no effect, 100%=total destruction
Procedure: as §1, §2, §3, §4

wheat = assay: Pre-emergence test/greenhouse; conditions: greenhouse, application rate 15 gai/ha, rated after three weeks, 0%=no effect, 100%=total destruction
Procedure: as §1, §2, §3, §4

weeds [3] = assay: Pre-emergence test, summary for weeds
Procedure: as §1, §2, §3, §4

[4] = system: crop plants, such as, for example, maize, soyabean and wheat; assay: Pre-emergence test, summary for crop plants
Procedure: as §1, §2, §3, §4

Lolium [5] = assay: Pre-emergence test/greenhouse; conditions: greenhouse, application rate 15 gai/ha, rated after three weeks, 0%=no effect, 100%=total destruction
Procedure: as §1, §2, §3, §4

Matricaria = assay: Pre-emergence test/greenhouse; conditions: greenhouse, application rate 15 gai/ha, rated after three weeks, 0%=no effect, 100%=total destruction
Procedure: as §1, §2, §3, §4

Polygonum = assay: Pre-emergence test/greenhouse; conditions: greenhouse, application rate 15 gai/ha, rated after three weeks, 0%=no effect, 100%=total destruction
Procedure: as §1, §2, §3, §4

Avena fatua [6] = assay: Post-emergence test/greenhouse; conditions: greenhouse, application rate 15 gai/ha, rated after three weeks, 0%=no effect, 100%=total destruction
Procedure: as §1
(§5) To produce a suitable preparation of active compound, 1 part by weight of active compound is mixed with the stated amount of solvent, the stated amount of emulsifier is added and the concentrate is diluted with water to the desired concentration.
(§6) Test plants of a height of 5-15 cm are sprayed with the preparation of active compound such that the particular amounts of active compound desired are applied per unit area. The concentration of the spray liquor is chosen such that the particular amounts of active compound desired are applied in 1000 l of water/ha.
(§7) After three weeks, the degree of damage to the plants is rated in % damage in comparison to the development of the untreated control.
(§8) The figures denote: • 0%=no effect (like untreated control) • 100%=total destruction

Bromus = assay: Post-emergence test/greenhouse; conditions: greenhouse, application rate 15 gai/ha, rated after three weeks, 0%=no effect, 100%=total destruction
Procedure: as §1, §5, §6, §7, §8

Digitaria = assay: Post-emergence test/greenhouse; conditions: greenhouse, application rate 15 gai/ha, rated after three weeks, 0%=no effect, 100%=total destruction
Procedure: as §1, §5, §6, §7, §8

Echinochloa = assay: Post-emergence test/greenhouse; conditions: greenhouse, application rate 15 gai/ha, rated after three weeks, 0%=no effect, 100%=total destruction
Procedure: as §1, §5, §6, §7, §8

Lolium [7] = assay: Post-emergence test/greenhouse; conditions: greenhouse, application rate 15 gai/ha, rated after three weeks, 0%=no effect, 100%=total destruction
Procedure: as §1, §5, §6, §7, §8

Setaria [8] = assay: Post-emergence test/greenhouse; conditions: greenhouse, application rate 15 gai/ha, rated after three weeks, 0%=no effect, 100%=total destruction
Procedure: as §1, §5, §6, §7, §8

Avena fatua [9] = assay: Pre-emergence test/greenhouse; conditions: greenhouse, application rate 15 gai/ha, rated after three weeks, 0%=no effect, 100%=total destruction
Procedure: as §1, §2, §3, §4

weeds [10] = assay: Post-emergence test, summary for weeds
Procedure: as §1, §5, §6, §7, §8

[11] = system: crop plants such as, for example, maize, oilseed rape and wheat; assay: Post-emergence test, summary for crop plants
Procedure: as §1, §5, §6, §7, §8

Alopecurus [12] = assay: Post-emergence test/greenhouse; conditions: greenhouse, application rate 15 gai/ha, rated after three weeks, 0%=no effect, 100%=total destruction
Procedure: as §1, §5, §6, §7, §8

soybeans = assay: Pre-emergence test/greenhouse; conditions: greenhouse, application rate 15 gai/ha, rated after three weeks, 0%=no effect, 100%=total destruction
Procedure: as §1, §2, §3, §4

Compound: COC(=O)c1csc(C)c1S(=O)(=O)NC(=O)n1nc(OCC(F)(F)F)n(C)c1=O [Example 41]
- degree of damage to the plants, Alopecurus (Alopecurus [1]): 100%
- degree of damage to the plants, Amaranthus (Amaranthus): 100%
- degree of damage to the plants, Chenopodium (Chenopodium): 100%
- degree of damage to the plants, Setaria (Setaria [2]): 95%
- degree of damage to the plants, Solanum (Solanum): 100%
- degree of damage to the plants, Stellaria (Stellaria): 100%
- degree of damage to the plants, maize (maize): 0%
- degree of damage to the plants, wheat (wheat): 0%
- activity against weeds compared with the known compounds (A) to (G) (weeds [3]): considerably stronger activity against weeds
- tolerance by crop plants [4]: tolerated well by crop plants

Compound: COC(=O)c1csc(C)c1S(=O)(=O)NC(=O)n1nc(OCC(F)(F)F)n(C2CC2)c1=O [Example 43]
- degree of damage to the plants, Amaranthus (Amaranthus): 100%
- degree of damage to the plants, Lolium (Lolium [5]): 95%
- degree of damage to the plants, Matricaria (Matricaria): 100%
- degree of damage to the plants, Polygonum (Polygonum): 100%
- degree of damage to the plants, Setaria (Setaria [2]): 95%
- degree of damage to the plants, Stellaria (Stellaria): 100%
- activity against weeds compared with the known compounds (A) to (G) (weeds [3]): considerably stronger activity against weeds
- tolerance by crop plants [4]: tolerated well by crop plants

Compound: COCc1nn(C(=O)NS(=O)(=O)c2c(C(=O)OC)csc2C)c(=O)n1C1CC1 [Example 45]
- degree of damage to the plants, Avena fatua (Avena fatua [6]): 90%
- degree of damage to the plants, Bromus (Bromus): 90%
- degree of damage to the plants, Digitaria (Digitaria): 100%
- degree of damage to the plants, Echinochloa (Echinochloa): 100%
- degree of damage to the plants, Lolium (Lolium [7]): 95%
- degree of damage to the plants, Setaria (Setaria [8]): 90%
- degree of damage to the plants, Amaranthus (Amaranthus): 100%
- degree of damage to the plants, Avena fatua (Avena fatua [9]): 95%
- degree of damage to the plants, Lolium (Lolium [5]): 100%
- degree of damage to the plants, Matricaria (Matricaria): 100%
- degree of damage to the plants, Polygonum (Polygonum): 95%
- degree of damage to the plants, Setaria (Setaria [2]): 100%
- degree of damage to the plants, Stellaria (Stellaria): 100%
- activity against weeds compared with the known compounds (A) and (B) (weeds [10]): considerably stronger activity against weeds
- compatibility with crop plants compared with the known compounds (A) and (B) [11]: substantially better compatibility with crop plants
- activity against weeds compared with the known compounds (A) to (G) (weeds [3]): considerably stronger activity against weeds
- tolerance by crop plants [4]: tolerated well by crop plants

Compound: COC(=O)c1csc(C)c1S(=O)(=O)NC(=O)n1nc(C)n(C2CC2)c1=O [Example 46]
- degree of damage to the plants, Alopecurus (Alopecurus [12]): 80%
- degree of damage to the plants, Avena fatua (Avena fatua [6]): 80%
- degree of damage to the plants, Digitaria (Digitaria): 90%
- degree of damage to the plants, Lolium (Lolium [7]): 95%
- degree of damage to the plants, Alopecurus (Alopecurus [1]): 95%
- degree of damage to the plants, Lolium (Lolium [5]): 90%
- degree of damage to the plants, Matricaria (Matricaria): 100%
- degree of damage to the plants, Stellaria (Stellaria): 100%
- degree of damage to the plants, maize (maize): 0%
- degree of damage to the plants, soybeans (soybeans): 0%
- degree of damage to the plants, wheat (wheat): 50%
- activity against weeds compared with the known compounds (A) and (B) (weeds [10]): considerably stronger activity against weeds
- compatibility with crop plants compared with the known compounds (A) and (B) [11]: substantially better compatibility with crop plants
- activity against weeds compared with the known compounds (A) to (G) (weeds [3]): considerably stronger activity against weeds
- tolerance by crop plants [4]: tolerated well by crop plants

— US7625841B2, “Substituted thiene-3-ylsulphonylamino(thio)carbonyltriazolin(ethi)ones” (Bayer CropScience AG, priority 2001, dated 2009)
